We go through one compound from article PMC9865645, “The Impact of N^ε-Acryloyllysine Piperazides on the Conformational Dynamics of Transglutaminase 2” (International Journal of Molecular Sciences, 2023).

For the assay, the target named is T1, self-produced hTGase 2 (Homo sapiens, UniProt P21980).
T1 construct: thrombin cleavage site (N); made in house; host or cells: E. coli BL21(DE3)
T1 sequence (P21980 1-687): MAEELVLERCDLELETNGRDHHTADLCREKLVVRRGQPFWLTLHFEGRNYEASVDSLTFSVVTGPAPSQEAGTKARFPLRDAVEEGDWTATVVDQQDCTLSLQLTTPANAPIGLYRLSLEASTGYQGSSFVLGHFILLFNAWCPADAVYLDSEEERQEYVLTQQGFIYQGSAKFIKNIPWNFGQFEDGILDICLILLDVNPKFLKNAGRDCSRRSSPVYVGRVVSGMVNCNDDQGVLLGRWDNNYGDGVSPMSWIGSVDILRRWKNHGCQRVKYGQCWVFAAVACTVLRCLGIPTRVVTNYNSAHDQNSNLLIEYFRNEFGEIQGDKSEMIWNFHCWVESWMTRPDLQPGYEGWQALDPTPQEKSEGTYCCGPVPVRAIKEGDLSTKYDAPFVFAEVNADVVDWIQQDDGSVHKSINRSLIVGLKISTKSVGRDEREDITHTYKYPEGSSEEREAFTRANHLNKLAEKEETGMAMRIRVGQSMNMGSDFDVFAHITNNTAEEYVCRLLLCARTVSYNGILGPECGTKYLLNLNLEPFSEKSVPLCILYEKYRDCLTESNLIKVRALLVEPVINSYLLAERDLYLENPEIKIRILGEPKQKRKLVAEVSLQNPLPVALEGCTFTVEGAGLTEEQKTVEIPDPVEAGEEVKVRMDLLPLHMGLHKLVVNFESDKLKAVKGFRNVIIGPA
Nature of the assay: native GTP-PAGE with increasing concentrations of inhibitor, band quantification. The assay is classed as biochemical. Particulars: 8.23 µM hTGase 2; for IC50: 50 µM GTP in gel and buffer. As to the method: Figure 8 Effect of increasing concentrations of inhibitor 2 on the activity and the conformation of hTGase 2. Native GTP-PAGE was performed on 7% separating gels. Both the gel and the running buffer contained 50 µM GTP without (A) and with an additional 500 µM MgCl2 (B). Samples of 8.23 µM self-produced hTGase 2 were first incubated for 30 min at 20 °C in 100 mM MOPS pH 8.0, 100 mM NaCl, 2.12% (v/v) DMSO, 5.33% (v/v) glycerol with CaCl2, GTP, MgCl2, and different concentrations of inhibitor 2, as indicated. GTP and/or MgCl2 were added as indicated, and all samples were incubated for 60 min at 20 °C. After adding native loading buffer, 6 µL of each sample containing 3 µg of hTGase 2 was loaded onto the gel. After electrophoretic separation, gels were stained with Coomassie Brilliant Blue G250, scanned, and the protein bands were quantified (Figure S7 in Supplementary Materials). Four species of hTGase 2, i.e., oligomers and slow-, intermediate-, and fast-migrating species, were identified, with slow- and intermediate-migrating species combined for the quantitative analysis. (C) Percentage of the signals of the three species per lane and (D) percentage of the oligomers’ signal plotted versus the concentration of inhibitor 2. (E) Signals of the slow-/intermediate-migrating and fast-migrating species were added and set to one. (F) Portion of the fast-migrating species in (E) was plotted against the concentration of inhibitor 2. The IC50 values in (D,F) were calculated by non-linear regression according to Equation (S29) in Supplementary Materials.
Sodium dodecyl sulfate-PAGE (SDS-PAGE) and native PAGE were performed on 4% stacking and 7% separating gels using Laemmli buffers (60 min with 120 V, 300 mA and 30 W at room temperature) and the same buffers without SDS (80 min with 120 V, 50 mA and 30 W at 4 °C), respectively. Buffers and gels were as follows: (i) for SDS-PAGE: stacking gel: 0.125 M TRIS pH 6.8, 4% (v/v) acrylamide-bisacrylamide, 0.1% (m/v) SDS; separating gel: 0.375 M TRIS pH 8.8, 7% (v/v) acrylamide-bisacrylamide, 0.1% (m/v) SDS; running buffer: 0.025 M TRIS pH 8.3, 0.2 M glycine, 0.1% (m/v) SDS; (ii) for native PAGE: the same buffers and gels were used without the addition of SDS. Native PAGE experiments, where 50 µM of GTP was added to the stacking and separating gels and the running buffer, are specified as “native GTP-PAGE” (with italic letters). In contrast, experiments without GTP are denoted as “native PAGE” (with italics letters). The term “native (GTP-)PAGE” (with italics letters) is used when we refer to both methods. Further conditions of the SDS-PAGE and native (GTP-)PAGE are detailed in the legends of Figure 7 and Figure 8 and Figures S4–S6 (Supplementary Materials). For the loading of samples onto the stacking gel, three parts of the sample solution were mixed with one part of the respective loading buffer. In the case of SDS-PAGE, SDS loading buffer (0.24 M TRIS, 40% (v/v) glycerol, 8% (m/v) SDS, 2% (v/v) 2-mercaptoethanol, and 0.08% (m/v) bromphenol blue) were used, followed by the denaturation of the mixture for 5 min at 60 °C. […] Afterward, the gels were scanned using a LI-COR Odyssey Fc Imager (700 channel) and analyzed using Image Studio software version 5.2.5. Detected bands were quantified based on the general procedure published by Wagstaff et al. and as detailed in legends to Figures S5 and S6. […]

Each structure is given as a SMILES string. Where two headings read alike, the source gives them in different places.

With `C=CC(=O)NCCCC[C@H](NC(=O)Cc1ccccc1I)C(=O)N1CCN(c2ccc([N+](=O)[O-])nc2)CC1` [Compound 2, N^α-(2-Iodophenylacetyl)-N^ε-acryloyl-L-lysin-4-(2-nitropyridin-5-yl)piperazide], the IC50 was 5.58 µM (Gel A (w/o Mg^2+), read-out: IC50, percentage of the oligomers' signal (Figure 8D)); 5.28 µM (Gel A (w/o Mg^2+), read-out: IC50, portion of the fast-migrating (closed) species of monomeric hTGase 2 (Figure 8F)); 5.71 µM (Gel B (with Mg^2+, 500 µM MgCl2), read-out: IC50, percentage of the oligomers' signal (Figure 8D)); 5.68 µM (Gel B (with Mg^2+, 500 µM MgCl2), read-out: IC50, portion of the fast-migrating (closed) species of monomeric hTGase 2 (Figure 8F)). The “ratio of the IC50 and the molar enzyme concentration” value (native GTP-PAGE, calculated from values in Figure 8D,F) is given as 0.64–0.69.

Broadly, the IC50 is the point on the concentration scale where inhibition reaches its midpoint.
